In patent publication US20170319740A1, “Bioactive Wound Dressing and Teeth Coating Based on Morphogenetically Active Amorphous Calcium Polyphosphate” (NanotecMARIN GmbH, priority 2014, published 2017):

What was measured:
leptin = assay: RT-qPCR steady-state gene expression in MC3T3-E1 cells: leptin; assay type: cell-based, Mus musculus; settings: 3 d, GAPDH reference
Protocol: (§1) As indicated, the following polyP preparations are added to the cells; […], et al. […] Retinol is dissolved in ethanol (1 mg/ml) and then diluted in DMSO (dimethyl sulfoxide). Incubation is performed for 3 d. In the indicated experiments, circular fiber mat samples (diameter of 15 mm) are inserted into each 24-well of the plates and seeded with MC3T3-E1 cells at a density of 5·10^3 cells/well. Then the assays are incubated for 3 d and subjected to microscopic as well as polymerase chain reaction analyses. The gene expression levels can be determined by applying the technique of reverse transcription-quantitative real-time polymerase chain reaction (RT-qPCR). […] Then the cells are harvested, their RNA is isolated and subjected to RT-qPCR. In the experiments described under Examples, the following primer pairs, matching with the respective mouse genes, are used: Fatty acid binding protein 4 (Mus musculus; accession number […]299] (SEQ ID NO: 1) and Rev: […]392] (SEQ ID NO: 2); product size 135 bp; leptin (M. musculus; […]2911] (SEQ ID NO: 3) and Rev: […]3019] (SEQ ID NO: 4); size 153 bp; and leptin receptor, transcript variant 2 (M. musculus; […]2592] (SEQ ID NO: 5) and Rev: […]2686] (SEQ ID NO: 6); size 139 bp. The GAPDH [glyceraldehyde 3-phosphate dehydrogenase (Mus GAPDH; NM_008084) is used as reference gene […]220] (SEQ ID NO: 7) and Rev: [NT]338 to nt316; size 139 bp] (SEQ ID NO: 8).

leptin receptor = assay: RT-qPCR steady-state gene expression in MC3T3-E1 cells: leptin receptor; assay type: cell-based, Mus musculus; settings: 3 d, GAPDH reference
Protocol: as §1

[1] = test system: fatty acid binding protein 4 (FABP4); assay: RT-qPCR steady-state gene expression in MC3T3-E1 cells: FABP4; assay type: cell-based, Mus musculus; settings: 3 d, GAPDH reference
Protocol: as §1

MC3T3-E1 cells [2] = assay: XTT cell viability / cell proliferation assay; assay type: cell-based, mouse
Protocol: (§2) The mouse calvaria cells MC3T3-E1 cells (ATCC-CRL-2593; #99072810; Sigma) are cultivated in a-MEM (Gibco—Invitrogen, Darmstadt; Germany) containing 20% fetal calf serum (FCS; Gibco). In addition, the medium is supplemented with 2 mM L-glutamine, 1 mM Na-pyruvate and 50 μg/ml of gentamycin. […] After reaching 80% confluency, the cells are detached using trypsin/EDTA and then subcultured at a density of 5·10^3 cells/ml. The cells are seeded at a density of 5·10^3 cells/well. Medium/serum change is every 3 d.
(§3) Retinol is dissolved in ethanol (1 mg/ml) and then diluted in DMSO (dimethyl sulfoxide). Incubation is performed for 3 d.
Cell proliferation/cell viability can be determined by the colorimetric XTT method ([Na-3′[1-(phenylamino-carbonyl)-3,4-tetrazolium]-bis(4-methoxy-6-nitro) benzene sulfonic acid] using, for example, the “Cell Proliferation Kit II” (Roche). The absorbance is determined at […] and subtracted from the background values ([…]). In the experiments described in Examples, the viable cells have been determined after 72 h.

MC3T3-E1 cells [3] = assay: Nile Blue A staining of cell monolayers; assay type: cell-based, mouse; settings: 72 h, controls stained in blue
Protocol: as §2, §3
The MC3T3-E1 cells are stained with Nile Blue A (Basic Blue 12, Nile blue sulfate; Sigma N0766) as described (Nakanishi T, Kato S. Impact of diabetes mellitus on myocardial lipid deposition: an autopsy study. Pathol Res Pract 2014; 210: 1018-1025). This staining reagent highlights in histological samples neutral lipids (triglycerides, cholesteryl esters, steroids) in pink, while acids (fatty acids, chromolipids, phospholipids) are stained in blue.

[4] = In vitro incubation of teeth, polyP coating / dentinal tubule resealing (light microscopy, SEM); set-up: species or system human; settings: 10 mg/mL; 2 d incubation
Protocol: In order to determine the efficacy of the aCa-polyP-MP to reseal the dentin layer and to check for the potency of the microparticles to occlude the dentinal tubules human teeth are used. Prior to use the teeth are mechanically cleaned from soft tissue, treated for 5 h in 3% Na-hypochlorite to remove tissue remains and then stored at 4° C. in a 100% relative humidity chamber.
Teeth specimens are submersed in saline (0.90% [w/v] NaCl) which contained, as mentioned in the text, either 10 mg/mL of aCa-polyP-MP or Na-polyP, stoichiometrically complexed with Ca^2+ (molar ratio of 2:1/phosphate monomer:Ca^2 [Müller W E G, et al. (2011) Inorganic polymeric phosphate/polyphosphate as an inducer of alkaline phosphatase and a modulator of intracellular Ca^2+ level in osteoblasts (SaOS-2 cells) in vitro. Acta Biomater 7:2661-2671]). Incubation is performed at 25° C. Then the samples are sliced by cutting 1-2 mm thick discs inwards to the pulp as described (Wang X H, et al. (2014) Enzyme-based biosilica and biocalcite: biomaterials for the future in regenerative medicine. Trends Biotechnol 32:441-447); where indicated, the dentin or enamel regions, as well as the cement layer, are included in the measurements. […]

ALP gene = assay: qRT-PCR of ALP expression in hMSC differentiating towards odontoblasts; assay type: cell-based, human; settings: 30 μg/mL, time not stated (1-7 d series), without polyP approximately 0.02
Protocol: The human multipotent stromal cells (hMSC) differentiate into odontoblasts in the presence of conditioned medium from developing tooth germ cells; the conditioned medium is prepared as described (Huo N, et al. (2010) Differentiation of dermal multipotent cells into odontogenic lineage induced by embryonic and neonatal tooth germ cell-conditioned medium. Stem Cells Dev 19:93-104). The description of the cultivation procedure for the hMSCs has been published (Wang X H, et al. (2014) The marine sponge-derived inorganic polymers, biosilica and polyphosphate, as morphogenetically active matrices/scaffolds for differentiation of human multipotent stromal cells: Potential application in 3D printing and distraction osteogenesis. Marine Drugs 12:1131-1147). The human cells can be obtained, after approval from the responsible ethics committee, from bone marrow aspirations after informed consent of the donors. Incubation was performed in a humidified incubator at 37° C. and 5% CO2. The sixth passage is used for the studies. The cells are incubated in α-MEM (Biochrom), supplemented with 20% fetal calf serum (FCS; Gibco Invitrogen) as well as with 100 units/mL penicillin and […] streptomycin. In addition, 5% of conditioned medium is added to the assays. […]

Row | Compound | leptin steady-state expression versus untreated control (leptin; 3 μM retinol) | leptin receptor steady-state expression versus untreated control (leptin receptor; 3 μM retinol) | FABP4 steady-state expression versus untreated control ([1]; 3 μM retinol) | cell growth (XTT) (MC3T3-E1 cells [2]; retinol 3 μM as single component, 72 h) | Nile Blue A staining colour of cells (MC3T3-E1 cells [3]; 3 μM retinol) | leptin steady-state expression versus untreated control (leptin; 3 μg/ml, control set to 1) | leptin receptor steady-state expression versus untreated control (leptin receptor; 3 μg/ml, control set to 1) | additional (polyP) layer on top of the cement, light microscopy [4] | surface texture / roughness of treated teeth, light microscopy [4] | ALP expression level, ratio to GAPDH (ALP gene) | FABP4 steady-state expression versus untreated control ([1]; 3 μg/ml, control set to 1) | number of cells (XTT) (MC3T3-E1 cells [2]; 72 h incubation, below a concentration of 3 μg/ml) | Nile Blue A staining colour of cells (MC3T3-E1 cells [3]; 3 μg/ml)
1 | CC1=C(/C=C/C(C)=C/C=C/C(C)=C/CO)C(C)(C)CCC1 [retinol, all-trans retinol] | non-significant increase | non-significant increase | non-significant increase | does not affect cell growth significantly | highlight in light/bright pink | – | – | – | – | – | – | – | –
2 | Na-polyphosphate | – | – | – | – | – | did not change significantly | did not change significantly | no additional layer was observed | coarse texture | 0.53±0.01 | did not change significantly | no effect on the number of cells | highlight in light/bright pink
